{"source": "ChEMBL document CHEMBL1833813", "about": "“Synthesis of a series of γ-amino alcohols comprising an N-methyl isoindoline moiety and their evaluation as NMDA receptor antagonists” (Bioorg Med Chem Lett, 2011)", "key": {"[1]": {"assay": "Displacement of [3H]-ifenprodil from ifenprodil binding site of NMDA receptor in porcine hippocampus synaptosomal fractions after 2 hrs", "format": "tissue-based, Sus scrofa"}, "[2]": {"assay": "Displacement of [3H]MK-801 from NMDA-NR2B receptor in porcine hippocampus synaptosomal fractions under nonequilibrium conditions after 15 mins", "format": "tissue-based, Sus scrofa"}, "[3]": {"species": "Sus scrofa", "assay": "Displacement of [3H]-ifenprodil from ifenprodil binding site of NMDA receptor in porcine hippocampus synaptosomal fractions at 100 uM after 2 hrs relative to control", "format": "tissue-based"}, "[4]": {"species": "Sus scrofa", "assay": "Displacement of [3H]MK-801 from NMDA-NR2B receptor in porcine hippocampus synaptosomal fractions at 100 uM after 15 mins relative to control", "format": "tissue-based"}, "[5]": {"target": "hERG (KCNH2) (Homo sapiens, UniProt Q12809)", "sequence (Q12809 whole entry)": "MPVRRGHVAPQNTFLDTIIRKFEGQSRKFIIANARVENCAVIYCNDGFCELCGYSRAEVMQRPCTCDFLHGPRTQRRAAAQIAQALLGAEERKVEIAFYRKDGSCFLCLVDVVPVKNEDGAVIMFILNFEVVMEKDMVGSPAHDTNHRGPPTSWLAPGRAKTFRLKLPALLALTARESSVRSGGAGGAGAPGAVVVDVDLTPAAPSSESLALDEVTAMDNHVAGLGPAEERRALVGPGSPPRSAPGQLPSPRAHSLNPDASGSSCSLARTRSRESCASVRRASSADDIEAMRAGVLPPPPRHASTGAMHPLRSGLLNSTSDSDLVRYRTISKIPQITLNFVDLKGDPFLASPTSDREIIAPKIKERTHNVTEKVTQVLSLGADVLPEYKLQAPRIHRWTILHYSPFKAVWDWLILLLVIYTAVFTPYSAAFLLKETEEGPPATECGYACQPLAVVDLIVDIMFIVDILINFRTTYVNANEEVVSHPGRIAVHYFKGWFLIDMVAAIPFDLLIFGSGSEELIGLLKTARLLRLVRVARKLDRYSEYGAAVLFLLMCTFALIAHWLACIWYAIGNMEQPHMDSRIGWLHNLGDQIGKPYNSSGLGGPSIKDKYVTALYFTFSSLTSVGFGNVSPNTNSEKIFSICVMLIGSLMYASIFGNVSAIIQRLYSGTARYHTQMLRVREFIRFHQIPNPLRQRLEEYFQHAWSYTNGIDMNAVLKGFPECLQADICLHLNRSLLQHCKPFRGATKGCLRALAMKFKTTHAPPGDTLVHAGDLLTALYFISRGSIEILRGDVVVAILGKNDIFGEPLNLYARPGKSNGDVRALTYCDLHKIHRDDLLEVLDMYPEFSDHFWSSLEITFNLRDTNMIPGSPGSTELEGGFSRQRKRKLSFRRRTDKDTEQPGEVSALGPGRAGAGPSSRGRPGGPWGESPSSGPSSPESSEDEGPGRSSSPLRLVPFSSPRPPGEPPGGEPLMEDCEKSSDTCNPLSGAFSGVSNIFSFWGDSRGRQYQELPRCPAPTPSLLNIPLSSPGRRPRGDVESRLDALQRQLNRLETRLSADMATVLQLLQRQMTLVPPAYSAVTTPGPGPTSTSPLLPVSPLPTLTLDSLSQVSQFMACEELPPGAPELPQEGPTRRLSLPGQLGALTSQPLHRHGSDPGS", "assay": "Residual current of human ERG expressed in CHO-K1 cells at 100 uM by patch clamp electrophysiological assay relative to control", "conditions": "CHO-K1 cells expressing human ERG"}, "[6]": {"assay": "Displacement of [3H]MK-801 from low affinity site of NMDA receptor in porcine hippocampus synaptosomal fractions after 15 mins", "format": "tissue-based, Sus scrofa"}, "[7]": {"assay": "Displacement of [3H]MK-801 from high affinity site of NMDA-NR2B receptor in porcine hippocampus synaptosomal fractions after 15 mins", "format": "tissue-based, Sus scrofa"}, "[8]": {"assay": "Displacement of [3H]-ifenprodil from ifenprodil binding site of NMDA receptor low affinity site in porcine hippocampus synaptosomal fractions after 2 hrs", "format": "tissue-based, Sus scrofa"}}}
{"smiles": "CN1Cc2ccccc2[C@@H]1C[C@H](O)c1ccc([N+](=O)[O-])cc1", "values": [{"measurement": "IC50", "setting": "[1]", "result": 7.5, "unit": "µM"}, {"measurement": "IC50", "setting": "[2]", "result": 43, "unit": "µM"}]}
{"smiles": "CN1Cc2ccccc2[C@@H]1C[C@@H](O)c1ccc(Cl)cc1", "values": [{"measurement": "IC50", "setting": "[2]", "result": 26, "unit": "µM"}, {"measurement": "Activity", "setting": "[3]", "result": 77, "unit": "%"}]}
{"smiles": "Cc1ccc([C@@H](O)C[C@@H]2c3ccccc3CN2C)cc1", "values": [{"measurement": "IC50", "setting": "[1]", "result": 9.3, "unit": "µM"}, {"measurement": "IC50", "setting": "[2]", "result": 23, "unit": "µM"}]}
{"smiles": "CN1Cc2ccccc2[C@H]1C[C@@H](O)c1ccc([N+](=O)[O-])cc1", "values": [{"measurement": "Activity", "setting": "[4]", "result": 82, "unit": "%"}, {"measurement": "IC50", "setting": "[1]", "result": 52, "unit": "µM"}]}
{"smiles": "CN1Cc2ccccc2[C@@H]1C[C@H](O)c1ccc(Cl)cc1", "values": [{"measurement": "residual current at 100 µM", "setting": "[5]", "result": 1.6, "unit": "%"}, {"measurement": "IC50", "setting": "[6]", "result": 67, "unit": "µM"}, {"measurement": "IC50", "setting": "[1]", "result": 0.27, "unit": "µM"}, {"measurement": "IC50", "setting": "[7]", "result": 0.5, "unit": "µM"}]}
{"smiles": "CN1Cc2ccccc2[C@H]1C[C@@H](O)c1ccc(Cl)cc1", "values": [{"measurement": "Activity", "setting": "[4]", "result": 78, "unit": "%"}, {"measurement": "IC50", "setting": "[1]", "result": 11, "unit": "µM"}]}
{"smiles": "CN1Cc2ccccc2[C@H]1C[C@H](O)c1ccc([N+](=O)[O-])cc1", "values": [{"measurement": "IC50", "setting": "[1]", "result": 42, "unit": "µM"}, {"measurement": "IC50", "setting": "[2]", "result": 43, "unit": "µM"}]}
{"smiles": "COc1cc2c(cc1OC)[C@H](C[C@H](O)c1ccc(Cl)cc1)N(C)CC2", "values": [{"measurement": "IC50", "setting": "[8]", "result": 22.5, "unit": "µM"}, {"measurement": "IC50", "setting": "[6]", "result": 23.5, "unit": "µM"}, {"measurement": "IC50", "setting": "[7]", "result": 0.103, "unit": "µM"}]}
{"smiles": "CN1Cc2ccccc2[C@H]1C[C@H](O)c1ccc(Cl)cc1", "values": [{"measurement": "IC50", "setting": "[1]", "result": 21, "unit": "µM"}, {"measurement": "IC50", "setting": "[2]", "result": 47, "unit": "µM"}]}
{"smiles": "Cc1ccc([C@H](O)C[C@@H]2c3ccccc3CN2C)cc1", "values": [{"measurement": "IC50", "setting": "[1]", "result": 35, "unit": "µM"}, {"measurement": "IC50", "setting": "[2]", "result": 31, "unit": "µM"}]}
{"smiles": "CN1Cc2ccccc2[C@@H]1C[C@@H](O)c1ccc([N+](=O)[O-])cc1", "values": [{"measurement": "IC50", "setting": "[2]", "result": 39, "unit": "µM"}, {"measurement": "Activity", "setting": "[3]", "result": 54, "unit": "%"}]}
{"smiles": "Cc1ccc([C@@H](O)C[C@H]2c3ccccc3CN2C)cc1", "values": [{"measurement": "residual current at 100 µM", "setting": "[5]", "result": 2.6, "unit": "%"}, {"measurement": "IC50", "setting": "[6]", "result": 20, "unit": "µM"}, {"measurement": "IC50", "setting": "[1]", "result": 0.43, "unit": "µM"}, {"measurement": "IC50", "setting": "[7]", "result": 0.21, "unit": "µM"}]}
{"smiles": "Cc1ccc([C@H](O)C[C@H]2c3ccccc3CN2C)cc1", "values": [{"measurement": "IC50", "setting": "[2]", "result": 28, "unit": "µM"}, {"measurement": "Activity", "setting": "[3]", "result": 65, "unit": "%"}]}
